Earlier results, collected in US20200132604A1, “METHODS OF DETERMINING PROTEIN STRUCTURE USING TWO-PHOTON FLUORESCENCE MEASUREMENTS” (Biodesy, Inc., priority 2017, published 2020).

What was measured:
human IgG-Fc = conditions: Sugita, et al. (2013)
[1] = molecular target: monomeric forms of avidin or streptavidin; conditions: read-out: biotin-binding affinity

Row | Compound | affinity (human IgG-Fc) [M⁻¹] | Kd [1] [nM]
1 | NKFRGKYK | 8.9e+06 | 
2 | NARKFYKG | 6.5e+06 | 
3 | O=C(O)CCCC[C@@H]1SC[C@@H]2NC(=O)N[C@@H]21 [biotin] |  | ~10
